Results on 21 molecules are retold here after US11639350B2, “Heteroaryldihydropyrimidine derivatives and methods of treating hepatitis B infections” (Janssen Pharmaceutica NV, priority 2018, dated 2023).

pEC50: −log10 of the molar value. Like-named read-outs stand apart in the source and are kept apart here.

In one series the test system is HBV. In words: HBV inhibitory activity: HBV DNA in the culture medium of HepG2.2.15 cells by q-PCR. Format: cell-based. Particulars: HepG2.2.15 cells, 6 days of compound treatment, HBV DNA in culture medium by q-PCR, highest concentration 10 μM, read-out: EC50. The essentials: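 Supernatant HBV DNA quantified by q-PCR after a 6-day compound exposure, with one mid-course medium change, of HepG2.2.15 cells (stably integrated HBV; 40,000 per well, 2% FBS). Eight-point 3-fold series topped at 10 μM for antiviral EC50; separate plates of 5,000 cells per well with 100 μM top give CC50.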

Series [1] is described as follows: Cytotoxicity determination in HepG2.2.15 cells (CCK-8). Format: cell-based. Particulars: human, 6 days of compound treatment, CCK-8, highest concentration 100 μM. The essentials: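 CC50 is from CCK-8 absorbance (450 nm, 630 nm reference) after 2.5 h with reagent. Before that, compounds were applied for six days, top concentration 100 μM, eight threefold dilutions, one mid-course medium change, to stably HBV-integrated HepG2.2.15 cells plated at 5,000/well in 2% FBS.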

[2] abbreviates: Hepatitis B virus, HepG2.2.15, 144 h.

`COC(=O)C1=C([C@H]2CCCC(C(=O)O)C2)NC(c2nccs2)=NC1c1cccc(F)c1Cl` (stereo in doubt) [Compound 25, cis-3-(6-(2-Chloro-3-fluorophenyl)-5-(methoxycarbonyl)-2-(thiazol-2-yl)-3,6-dihydropyrimidin-4-yl)cyclohexanecarboxylic Acid]: the pEC50 in the series on HBV (setting [2]) was 6.78. The half-maximal cytotoxic concentration (CC50) at 6 days in series [1] stood at 35.3 µM.
With `COC(=O)C1=C(C2CCN(S(=O)(=O)C3CN(CCOC(C)(C)C)C3)CC2)NC(c2nccs2)=NC1c1ccc(F)c(F)c1Cl` (stereo not drawn) [Compound 248, Methyl 6-(1-((1-(2-(tert-butoxy)ethyl)azetidin-3-yl)sulfonyl)piperidin-4-yl)-4-(2-chloro-3,4-difluorophenyl)-2-(thiazol-2-yl)-1,4-dihydropyrimidine-5-carboxylate], the negative logarithm of the EC50 (pEC50) in the series on HBV (setting [2]) was 7.25. For the same molecule, the 50% cytotoxic concentration (CC50) at 6 days in series [1] was determined as 3.5 µM.
In the case of `COC(=O)C1=C(C2CCN(S(=O)(=O)CC(O)CO)CC2)NC(c2nccs2)=NC1c1ccc(F)cc1Cl` (single isomer, unassigned) [Compound 305A, Methyl 4-(2-chloro-4-fluorophenyl)-6-(1-((2,3-dihydroxypropyl)sulfonyl)piperidin-4-yl)-2-(thiazol-2-yl)-1,4-dihydropyrimidine-5-carboxylate], the pEC50 in the series on HBV (setting [2]) was 7.33. In series [1], this molecule had a cytotoxic concentration (CC50) at 6 days of 36.2 µM.
Turning to `COC(=O)C1=C(C23CC(N(C[C@@H](O)CO)S(C)(=O)=O)(C2)C3)NC(c2nccs2)=NC1c1ccc(F)cc1Cl` (single isomer, unassigned) [Compound 376C], the pEC50 in the series on HBV was 7.12. The same molecule returned a CC50 at 6 days in series [1] of 95 µM.
For the molecule `CCOC(=O)C1=C([C@H]2CC[C@H](C(=O)O)CC2)NC(c2nccs2)=NC1c1ccc(F)c(F)c1Cl` (single isomer, unassigned) [Compound 345A, (trans)-(R*)-4-(6-(2-Chloro-3,4-difluorophenyl)-5-(ethoxycarbonyl)-2-(thiazol-2-yl)-3,6-dihydropyrimidin-4-yl)cyclohexanecarboxylic Acid], in the series on HBV (setting [2]), the negative logarithm of the EC50 (pEC50) was 7.36. In series [1], this molecule gave a CC50 at 6 days of 34.1 µM.
With `COC(=O)C1=C(C2CCN(S(=O)(=O)c3cn[nH]c3)CC2)NC(c2nccs2)=NC1c1ccc(F)c(F)c1Cl` (stereo not drawn) [Compound 324, methyl 6-(1-((1H-pyrazol-4-yl)sulfonyl)piperidin-4-yl)-4-(2-chloro-3,4-difluorophenyl)-2-(thiazol-2-yl)-1,4-dihydropyrimidine-5-carboxylate], in the series on HBV (setting [2]), the negative-log EC50 (pEC50) was 8.30. Moreover, half-maximal cytotoxicity in series [1] (CC50 at 6 days) was put at 9.8 µM.
On to `CCOC(=O)C1=C(C2CCCCC2)NC(c2nccs2)=NC1c1ccc(F)cc1Cl` (single isomer, unassigned) [Compound 47A, Ethyl 4-(2-chloro-4-fluorophenyl)-6-cyclohexyl-2-(thiazol-2-yl)-1,4-dihydro-pyrimidine-5-carboxylate], for which the pEC50 with HBV (setting [2]) is 6.56. The molecule also gave a 50% cytotoxic concentration (CC50) at 6 days in series [1] of 30.9 µM.
In the same order, the values of `CCOC(=O)C1=C([C@H]2CC[C@H](C(=O)O)CC2)NC(c2nccs2)=NC1c1ccccc1Br` (stereo partly drawn) [Compound 148A, (trans)-4-(6-(2-bromophenyl)-5-(ethoxycarbonyl)-2-(thiazol-2-yl)-3,6-dihydropyrimidin-4-yl)cyclohexane-1-carboxylic Acid] are 7.01 and 29.4 µM.
As to `COC(=O)C1=C(C2CC2)NC(c2nccs2)=NC1c1ccc(F)cc1Cl` (single isomer, unassigned) [Compound 90A, Methyl 4-(2-chloro-4-fluorophenyl)-6-cyclopropyl-2-(thiazol-2-yl)-1,4-dihydropyrimidine-5-carboxylate], in the series with HBV (setting [2]), the pEC50 was 7.64. Besides, half-maximal cytotoxicity in series [1] (CC50 at 6 days) was put at 26.7 µM.
In the case of `COC(=O)C1=C(C2CCN(S(C)(=N)=O)CC2)NC(c2nccs2)=NC1c1ccc(F)cc1Cl` (stereo not drawn) [Compound 401B, Methyl 4-(2-chloro-4-fluorophenyl)-6-(1-(S-methylsulfonimidoyl)piperidin-4-yl)-2-(thiazol-2-yl)-1,4-dihydropyrimidine-5-carboxylate], the negative-log EC50 (pEC50) with HBV (setting [2]) was 7.54. This molecule showed a CC50 at 6 days in series [1] of 56.2 µM.
In the same order, the values of `COC(=O)C1=C(C2CCN(S(=O)(=O)c3ccccn3)CC2)NC(c2nccs2)=NC1c1cccc(F)c1Cl` (single isomer, unassigned) [Compound 116B, Methyl 4-(2-chloro-3-fluorophenyl)-6-(1-(pyridin-2-ylsulfonyl)-piperidin-4-yl)-2-(thiazol-2-yl)-1,4-dihydropyrimidine-5-carboxylate] are 6.68 and 71.3 µM.
`COC(=O)C1=C([C@H]2CC[C@H](C(=O)OC)CC2)NC(c2nccs2)=NC1c1ccc(F)c(F)c1Cl` (single isomer, unassigned) [Compound 288M, (trans)-Methyl 4-(2-chloro-3,4-difluorophenyl)-6-(4-(methoxycarbonyl)cyclohexyl)-2-(thiazol-2-yl)-1,4-dihydropyrimidine-5-carboxylate]: the pEC50 in the series with HBV (setting [2]) is 7.20. This molecule displayed a cytotoxic concentration (CC50) at 6 days in series [1] of 20 µM.
In the same order, the values of `COC(=O)C1=C([C@H]2CC[C@H](S(=O)(=O)NC(C)C)CC2)NC(c2nccs2)=NC1c1ccc(F)c(F)c1Cl` (single isomer, unassigned) [Compound 234D, (trans)-methyl 4-(2-chloro-3,4-difluorophenyl)-6-(4-(N-isopropylsulfamoyl)cyclohexyl)-2-(thiazol-2-yl)-1,4-dihydropyrimidine-5-carboxylate] are 7.89 and 4.2 µM.
In the same order, the values of `COC(=O)C1=C(C2CCN(S(C)(=N)=O)CC2)NC(c2nccs2)=NC1c1ccc(F)cc1Cl` (single isomer, unassigned) [Compound 401Y, Methyl 4-(2-chloro-4-fluorophenyl)-6-(1-(S-methylsulfonimidoyl)piperidin-4-yl)-2-(thiazol-2-yl)-1,4-dihydropyrimidine-5-carboxylate] are 7.62 and 60 µM.
With `COC(=O)C1=C(C2CCN(S(=O)(=O)C3CCC(C(=O)OC(C)(C)C)CC3)CC2)NC(c2nccs2)=NC1c1ccc(F)cc1Cl` (single isomer, unassigned) [Compound 312X, Methyl 6-(1-((4-(tert-butoxycarbonyl)cyclohexyl)sulfonyl)-piperidin-4-yl)-4-(2-chloro-4-fluorophenyl)-2-(thiazol-2-yl)-1,4-dihydropyrimidine-5-carboxylate], the negative logarithm of the EC50 (pEC50) in the series with HBV (setting [2]) was 7.01. In series [1], the 50% cytotoxic concentration (CC50) at 6 days was > 100 µM.
With `COC(=O)C1=C(C2CCN(S(=O)(=O)c3cnn([C@H]4C[C@H](C(=O)O)C4)c3)CC2)NC(c2nccs2)=NC1c1ccc(F)cc1Cl` (stereo partly drawn) [Compound 470, (trans)-3-(4-((4-(6-(2-Chloro-4-fluorophenyl)-5-(methoxycarbonyl)-2-(thiazol-2-yl)-3,6-dihydropyrimidin-4-yl)piperidin-1-yl)sulfonyl)-1H-pyrazol-1-yl)cyclobutanecarboxylic Acid], the negative-log EC50 (pEC50) with HBV (setting [2]) was 7.25. The same molecule returned a CC50 at 6 days in series [1] of 20.1 µM.
On to `COC(=O)C1=C(C2CCN(S(C)(=O)=O)CC2)NC(c2nccs2)=NC1c1ccc(Cl)cc1F` (stereo not drawn) [Compound 97B, 4-(4-Chloro-2-fluoro-phenyl)-6-(1-methanesulfonyl-pip-eridin-4-yl)-2-thiazol-2-yl-1,4-dihydro-pyrimidine-5-carboxylic Acid Methyl Ester], for which the negative-log EC50 (pEC50) in the series with HBV (setting [2]) is 7.33. Also, the CC50 at 6 days in series [1] is > 100 µM.
On to `COC(=O)C1=C(C2CCN(S(=O)(=O)[C@H]3C[C@H](C(=O)O)C3)CC2)NC(c2nccs2)=NC1c1cccc(F)c1Br` (relative stereo) [Compound 439B, (trans)-3-((4-(6-(2-Bromo-3-fluorophenyl)-5-(methoxycarbonyl)-2-(thiazol-2-yl)-3,6-dihydropyrimidin-4-yl)piperidin-1-yl)sulfonyl)cyclobutanecarboxylic Acid], for which the negative-log EC50 (pEC50) in the series with HBV (setting [2]) is 7.18. The molecule also returned a CC50 at 6 days in series [1] of 53.8 µM.
For the molecule `COC(=O)C1=C(C2CCN(C(=O)C3CC3)CC2)NC(c2nccs2)=NC1c1ccc(F)cc1Cl` (stereo not drawn) [Compound 102, Methyl 4-(2-chloro-4-fluorophenyl)-6-(1-(cyclopropanecarbonyl)-piperidin-4-yl)-2-(thiazol-2-yl)-1,4-dihydropyrimidine-5-carboxylate], the pEC50 in the series with HBV (setting [2]) was 6.89. It took 57 µM to reach half-maximal cytotoxicity in series [1] (CC50 at 6 days).
The matching figures for `COC(=O)C1=C(C2CCN(S(=O)(=O)[C@H]3C[C@H](C(C)(C)O)C3)CC2)NC(c2nccs2)=NC1c1ccc(F)cc1Cl` (single isomer, unassigned) [Compound 244B, (trans)-Methyl 4-(2-chloro-4-fluorophenyl)-6-(1-((3-(2-hydroxypropan-2-yl)cyclobutyl)sulfonyl)piperidin-4-yl)-2-(thiazol-2-yl)-1,4-dihydropyrimidine-5-carboxylate]: 8.22 and 12.3 µM.
The matching figures for `COC(=O)C1=C([C@H]2CC[C@H](C(=O)O)CC2)NC(c2nccs2)=NC1c1ccc(F)c(F)c1Br` (stereo partly drawn) [Compound 229B, (trans)-4-(6-(2-Bromo-3,4-difluorophenyl)-5-(methoxycarbonyl)-2-(thiazol-2-yl)-3,6-dihydropyrimidin-4-yl)cyclohexane-carboxylic Acid]: 7.96 and 32.1 µM.

In general, pEC50 refers to −log10 of the EC50, conventionally taken in molar units. As usually defined, the CC50 is the concentration giving 50% cytotoxicity.
